Here are results for 22 compounds from patent publication US7074789B2, “Kinase inhibitors” (Amgen Inc., priority 1999, dated 2006).

Type in all cases: biochemical
One experiment has as its target T1, Lyn (Homo sapiens, UniProt P07948).
T1 construct: Kinases are expressed as either kinase domains or full length constructs; made in house
Kind of experiment: Kinase inhibition assay (33P transfer), Lyn. The conditions noted are these: Table 6, Lyn-1 kinase inhibition class. Put shortly: (§1)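 Read-out: scintillation counts of 33P moved from ATP onto synthetic peptide polymer coated on the well surface, after washing with 0.5% phosphoric acid. Enzymes were tagged (GST or polyHistidine) and came from bacterial or insect-cell expression. IC50 marks 50% loss of incorporated label.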

In another experiment the target is T2, EPHB4 (Homo sapiens, UniProt P54760).
T2 construct: Kinases are expressed as either kinase domains or full length constructs; made in house
T2 sequence (P54760 16-987): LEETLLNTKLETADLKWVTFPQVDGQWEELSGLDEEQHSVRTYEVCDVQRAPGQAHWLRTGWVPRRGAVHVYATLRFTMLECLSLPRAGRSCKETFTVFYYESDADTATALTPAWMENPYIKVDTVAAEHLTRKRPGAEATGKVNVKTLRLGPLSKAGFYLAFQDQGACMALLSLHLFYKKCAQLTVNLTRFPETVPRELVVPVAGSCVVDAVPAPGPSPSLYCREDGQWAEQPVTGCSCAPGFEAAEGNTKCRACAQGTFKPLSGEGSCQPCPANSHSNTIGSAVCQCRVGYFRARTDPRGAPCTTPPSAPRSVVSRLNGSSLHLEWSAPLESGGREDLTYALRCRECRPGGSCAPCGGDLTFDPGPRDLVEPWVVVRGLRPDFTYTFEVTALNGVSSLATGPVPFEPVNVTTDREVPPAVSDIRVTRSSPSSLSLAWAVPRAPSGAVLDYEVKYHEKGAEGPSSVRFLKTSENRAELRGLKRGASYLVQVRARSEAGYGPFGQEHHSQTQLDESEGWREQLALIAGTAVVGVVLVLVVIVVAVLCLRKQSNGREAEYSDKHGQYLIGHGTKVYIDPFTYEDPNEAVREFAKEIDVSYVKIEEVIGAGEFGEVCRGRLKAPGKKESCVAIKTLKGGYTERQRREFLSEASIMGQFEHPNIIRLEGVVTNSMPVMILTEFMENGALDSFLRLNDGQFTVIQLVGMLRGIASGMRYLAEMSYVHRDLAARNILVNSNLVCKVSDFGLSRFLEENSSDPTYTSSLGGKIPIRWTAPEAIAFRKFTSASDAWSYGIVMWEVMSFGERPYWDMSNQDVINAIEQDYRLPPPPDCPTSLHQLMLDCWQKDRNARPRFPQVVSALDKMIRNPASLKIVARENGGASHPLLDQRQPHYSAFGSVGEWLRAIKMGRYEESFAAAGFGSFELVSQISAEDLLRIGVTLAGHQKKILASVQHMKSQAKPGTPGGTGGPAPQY
In words: Kinase inhibition assay (33P transfer), EPHB4. Conditions: read-out: EPHB4-1.

In a further experiment the target is T3, Ret-1 (Homo sapiens, UniProt P07949).
T3 construct: Kinases are expressed as either kinase domains or full length constructs; made in house
T3 sequence (P07949 29-1114): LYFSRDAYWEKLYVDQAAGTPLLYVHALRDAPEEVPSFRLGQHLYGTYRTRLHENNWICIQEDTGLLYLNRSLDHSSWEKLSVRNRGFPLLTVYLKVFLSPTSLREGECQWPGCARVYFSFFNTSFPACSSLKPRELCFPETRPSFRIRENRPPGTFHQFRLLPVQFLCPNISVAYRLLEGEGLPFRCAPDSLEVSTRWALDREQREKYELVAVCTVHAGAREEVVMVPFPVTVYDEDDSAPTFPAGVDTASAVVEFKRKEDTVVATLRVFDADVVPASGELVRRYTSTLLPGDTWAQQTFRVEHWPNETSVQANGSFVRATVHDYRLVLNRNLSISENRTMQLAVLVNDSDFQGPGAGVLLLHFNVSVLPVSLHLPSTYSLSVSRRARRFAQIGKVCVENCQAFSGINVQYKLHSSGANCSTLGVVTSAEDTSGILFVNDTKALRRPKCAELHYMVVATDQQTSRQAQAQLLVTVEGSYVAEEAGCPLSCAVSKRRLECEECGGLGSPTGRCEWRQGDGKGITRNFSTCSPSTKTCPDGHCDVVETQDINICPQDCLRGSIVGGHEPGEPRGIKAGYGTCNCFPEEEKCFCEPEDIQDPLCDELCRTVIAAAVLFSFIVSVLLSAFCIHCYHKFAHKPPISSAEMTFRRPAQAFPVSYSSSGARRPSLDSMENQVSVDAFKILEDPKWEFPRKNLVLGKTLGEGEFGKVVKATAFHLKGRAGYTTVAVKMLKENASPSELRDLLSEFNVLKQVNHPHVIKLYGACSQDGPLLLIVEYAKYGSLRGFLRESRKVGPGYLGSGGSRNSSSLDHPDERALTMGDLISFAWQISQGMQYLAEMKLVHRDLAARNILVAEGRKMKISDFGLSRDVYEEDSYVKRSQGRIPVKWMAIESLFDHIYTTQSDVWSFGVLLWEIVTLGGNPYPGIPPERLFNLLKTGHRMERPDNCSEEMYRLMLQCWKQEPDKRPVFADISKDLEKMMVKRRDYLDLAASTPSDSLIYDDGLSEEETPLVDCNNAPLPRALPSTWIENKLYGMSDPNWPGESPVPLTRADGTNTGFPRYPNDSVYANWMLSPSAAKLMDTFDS
Kind of experiment: Kinase inhibition assay (33P transfer), Ret. Conditions: Table 6, Ret-1 kinase inhibition class.

Another experiment has as its target T4, Zap-70 (Homo sapiens, UniProt P43403).
T4 construct: Kinases are expressed as either kinase domains or full length constructs; made in house
T4 sequence (P43403 1-619): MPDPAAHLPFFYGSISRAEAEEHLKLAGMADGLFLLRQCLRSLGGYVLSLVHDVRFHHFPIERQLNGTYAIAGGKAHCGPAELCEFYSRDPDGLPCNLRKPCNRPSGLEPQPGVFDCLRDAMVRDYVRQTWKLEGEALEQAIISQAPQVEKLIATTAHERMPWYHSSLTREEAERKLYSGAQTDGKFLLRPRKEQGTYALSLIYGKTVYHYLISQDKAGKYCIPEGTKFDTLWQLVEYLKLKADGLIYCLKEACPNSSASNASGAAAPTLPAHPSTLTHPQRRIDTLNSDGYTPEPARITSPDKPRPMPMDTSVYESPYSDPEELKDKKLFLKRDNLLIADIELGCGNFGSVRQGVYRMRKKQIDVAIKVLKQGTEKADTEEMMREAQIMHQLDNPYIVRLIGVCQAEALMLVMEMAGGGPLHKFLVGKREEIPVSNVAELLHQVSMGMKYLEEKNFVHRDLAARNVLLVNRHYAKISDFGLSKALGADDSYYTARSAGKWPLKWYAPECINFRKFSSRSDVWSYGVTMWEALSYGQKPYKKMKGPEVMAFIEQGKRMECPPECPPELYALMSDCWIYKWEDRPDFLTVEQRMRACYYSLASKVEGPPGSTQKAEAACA
Kind of experiment: Kinase inhibition assay (33P transfer), Zap-70. Conditions: Table 3; read-out: Zap-1. The method in brief: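 Each kinase, expressed as a GST- or polyHis-tagged domain or full-length protein, phosphorylated plate-attached poly(Glu,Tyr) 4:1 or poly(Arg,Ser) 3:1 using 33P-ATP. Bound radioactivity was measured by scintillation after a 0.5% phosphoric acid wash.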

In another experiment the target is T5, Tek (Homo sapiens, UniProt Q02763).
T5 construct: Kinases are expressed as either kinase domains or full length constructs; made in house
T5 sequence (Q02763 23-1124, species assumed): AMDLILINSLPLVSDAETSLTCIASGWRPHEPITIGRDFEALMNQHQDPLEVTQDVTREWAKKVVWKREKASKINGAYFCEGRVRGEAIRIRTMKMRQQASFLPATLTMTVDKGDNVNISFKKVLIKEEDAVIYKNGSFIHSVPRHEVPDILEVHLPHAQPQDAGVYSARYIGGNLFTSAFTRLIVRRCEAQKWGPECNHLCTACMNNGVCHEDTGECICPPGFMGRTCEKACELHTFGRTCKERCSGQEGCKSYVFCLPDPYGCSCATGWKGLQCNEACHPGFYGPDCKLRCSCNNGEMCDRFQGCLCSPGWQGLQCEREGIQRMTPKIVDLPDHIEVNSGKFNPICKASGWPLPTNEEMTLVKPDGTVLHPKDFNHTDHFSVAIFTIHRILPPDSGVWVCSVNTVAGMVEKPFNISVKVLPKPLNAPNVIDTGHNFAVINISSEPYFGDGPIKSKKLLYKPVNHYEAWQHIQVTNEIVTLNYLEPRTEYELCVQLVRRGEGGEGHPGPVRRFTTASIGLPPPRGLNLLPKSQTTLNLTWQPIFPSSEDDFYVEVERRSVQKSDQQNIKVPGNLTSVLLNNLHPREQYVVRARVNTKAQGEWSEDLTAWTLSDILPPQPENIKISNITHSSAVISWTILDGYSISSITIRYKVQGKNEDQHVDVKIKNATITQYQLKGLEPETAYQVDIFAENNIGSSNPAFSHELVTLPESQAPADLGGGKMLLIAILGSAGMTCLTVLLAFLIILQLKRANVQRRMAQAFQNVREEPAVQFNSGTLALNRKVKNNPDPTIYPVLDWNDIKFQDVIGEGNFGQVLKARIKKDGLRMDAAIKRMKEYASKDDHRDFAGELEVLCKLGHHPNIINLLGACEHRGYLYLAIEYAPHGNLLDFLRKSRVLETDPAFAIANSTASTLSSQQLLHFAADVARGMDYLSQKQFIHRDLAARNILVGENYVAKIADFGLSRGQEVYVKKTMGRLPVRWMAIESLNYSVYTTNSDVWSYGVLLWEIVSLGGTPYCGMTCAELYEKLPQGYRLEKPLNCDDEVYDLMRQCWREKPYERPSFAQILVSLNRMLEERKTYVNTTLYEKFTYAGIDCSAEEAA
In words: Kinase inhibition assay (33P transfer), Tek. Conditions: read-out: Tek-1. Put shortly:
as §1

A further experiment addresses T6, ErbB4 (Homo sapiens, UniProt Q15303).
T6 construct: Kinases are expressed as either kinase domains or full length constructs; made in house
In words: Kinase inhibition assay (33P transfer), ErbB4. The conditions noted are these: read-out: ErbB4-1.

The next experiment addresses T7, ErbB2 (Homo sapiens, UniProt P04626).
T7 construct: Kinases are expressed as either kinase domains or full length constructs; made in house
Kind of experiment: Kinase inhibition assay (33P transfer), ErbB2. Conditions: read-out: ErbB2-2. The method in brief:
as §1

T6 sequence (Q15303 26-1308, species assumed): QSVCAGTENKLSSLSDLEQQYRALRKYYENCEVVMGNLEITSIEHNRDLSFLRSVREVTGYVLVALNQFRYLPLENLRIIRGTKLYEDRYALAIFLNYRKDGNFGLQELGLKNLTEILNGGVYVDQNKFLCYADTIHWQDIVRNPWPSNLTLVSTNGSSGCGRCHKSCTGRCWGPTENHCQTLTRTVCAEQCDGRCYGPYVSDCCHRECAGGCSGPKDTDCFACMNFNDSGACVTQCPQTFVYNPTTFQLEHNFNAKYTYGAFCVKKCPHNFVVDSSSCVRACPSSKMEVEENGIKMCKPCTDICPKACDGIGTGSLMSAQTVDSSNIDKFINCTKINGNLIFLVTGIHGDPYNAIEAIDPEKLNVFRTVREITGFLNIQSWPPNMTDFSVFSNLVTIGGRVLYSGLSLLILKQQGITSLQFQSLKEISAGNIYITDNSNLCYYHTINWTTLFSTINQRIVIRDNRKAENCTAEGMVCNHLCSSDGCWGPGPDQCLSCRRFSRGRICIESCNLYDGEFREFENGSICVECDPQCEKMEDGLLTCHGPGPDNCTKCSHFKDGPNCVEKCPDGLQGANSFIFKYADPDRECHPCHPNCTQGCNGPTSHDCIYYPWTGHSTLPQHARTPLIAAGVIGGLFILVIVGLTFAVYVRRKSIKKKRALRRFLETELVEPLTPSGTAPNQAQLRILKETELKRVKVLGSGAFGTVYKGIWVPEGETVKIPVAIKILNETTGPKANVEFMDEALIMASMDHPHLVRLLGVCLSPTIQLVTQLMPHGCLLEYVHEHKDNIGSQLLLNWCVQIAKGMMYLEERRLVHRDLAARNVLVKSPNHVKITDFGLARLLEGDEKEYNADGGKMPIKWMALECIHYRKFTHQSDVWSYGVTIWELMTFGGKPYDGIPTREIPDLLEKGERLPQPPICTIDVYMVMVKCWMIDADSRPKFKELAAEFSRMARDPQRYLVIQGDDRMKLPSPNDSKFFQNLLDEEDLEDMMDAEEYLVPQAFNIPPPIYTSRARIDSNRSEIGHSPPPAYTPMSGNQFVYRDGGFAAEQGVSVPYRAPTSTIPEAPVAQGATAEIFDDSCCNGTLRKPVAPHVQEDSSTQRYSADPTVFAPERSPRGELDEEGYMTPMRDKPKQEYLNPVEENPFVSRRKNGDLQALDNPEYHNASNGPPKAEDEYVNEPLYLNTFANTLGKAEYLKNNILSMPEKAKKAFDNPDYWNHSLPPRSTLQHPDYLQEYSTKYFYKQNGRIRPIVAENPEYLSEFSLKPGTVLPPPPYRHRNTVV
T1 sequence (P07948 whole entry, species assumed, the tested form may be a part): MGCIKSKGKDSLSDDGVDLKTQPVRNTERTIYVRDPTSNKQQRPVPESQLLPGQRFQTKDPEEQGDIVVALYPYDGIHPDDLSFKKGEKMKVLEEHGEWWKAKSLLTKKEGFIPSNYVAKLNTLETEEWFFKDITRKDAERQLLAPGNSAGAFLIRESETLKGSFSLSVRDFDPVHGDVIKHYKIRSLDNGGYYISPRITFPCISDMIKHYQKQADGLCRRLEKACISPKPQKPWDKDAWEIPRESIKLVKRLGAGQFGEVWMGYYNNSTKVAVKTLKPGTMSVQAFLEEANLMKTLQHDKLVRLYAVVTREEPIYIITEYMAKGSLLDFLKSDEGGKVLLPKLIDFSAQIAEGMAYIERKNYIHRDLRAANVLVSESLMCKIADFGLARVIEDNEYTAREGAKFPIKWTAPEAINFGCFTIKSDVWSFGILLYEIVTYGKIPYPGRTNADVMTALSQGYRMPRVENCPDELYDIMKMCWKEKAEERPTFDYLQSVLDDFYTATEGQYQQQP

In the case of `COc1cc(Nc2ncnc(Nc3ccc(N(C)C)cc3)n2)cc(OC)c1OC` [Compound 27], the IC50 on Lyn is 1010 to 6050 nM; at EPHB4 it was over 11.4 µM; on Ret-1, 1.01 to 6.05 µM; at Zap-70, over 11.4 µM.
As to `COc1cc(Nc2ncnc(Nc3ccc(Oc4ccccc4)cc3)n2)cc(OC)c1OC` [Compound 29], the IC50 at Tek was over 10.1 µM; on Lyn, under 898 nM; at EPHB4, over 10.1 µM; against Ret-1 it was under 0.898 µM; on Zap-70 it was over 10.1 µM; at ErbB4 it was 0.898 to 5.39 µM.
On to `COc1cc(Nc2ncnc(Nc3ccc(C(N)=O)cc3)n2)cc(OC)c1OC` [Compound 33], for which the IC50 was over 11.4 µM on Tek; 1010 to 6050 nM at Lyn; over 11.4 µM at EPHB4; over 11.4 µM against Ret-1; over 11.4 µM on Zap-70.
Take `COc1cc(Nc2ncnc(Nc3ccc(F)c(Cl)c3)n2)cc(OC)c1OC` [Compound 61]: the IC50 against Lyn was under 986 nM; at EPHB4, under 0.986 µM; against Ret-1, over 11.1 µM; at Zap-70, over 11.1 µM; on ErbB4, over 11.1 µM.
Regarding `COc1cc(Nc2ncnc(Nc3ccccc3F)n2)cc(OC)c1OC` [Compound 65], the IC50 is over 12.1 µM at Tek; 1080 to 6460 nM against Lyn; 6.46 to 9.42 µM at EPHB4; 1.08 to 6.46 µM against Ret-1; over 12.1 µM on Zap-70; over 12.1 µM at ErbB4.
In the case of `COc1cc(Nc2ncnc(Nc3ccc(C(C)C)cc3)n2)cc(OC)c1OC` [Compound 66], the IC50 at Tek was 6.07 to 8.85 µM; at Lyn it was 1010 to 6070 nM; at EPHB4 it was 8.85 to 11.4 µM; against Ret-1, over 11.4 µM; at Zap-70, 6.07 to 8.85 µM.
As for `COc1cc(Nc2ncnc(Nc3ccccc3C)n2)cc(OC)c1OC` [Compound 67], the IC50 on Tek was over 12.2 µM; against Lyn it was under 1090 nM; at EPHB4 it was 6.53 to 9.53 µM; at Ret-1, over 12.2 µM; at Zap-70 it was over 12.2 µM.
As for `COc1cc(Nc2ncnc(Nc3cc(Cl)c(O)c(Cl)c3)n2)cc(OC)c1OC` [Compound 68], the IC50 at Tek was over 10.3 µM; on Lyn it was under 913 nM; at EPHB4 it was 0.913 to 5.48 µM; against Ret-1 it was 0.913 to 5.48 µM; at Zap-70, over 10.3 µM; on ErbB4 it was over 10.3 µM.
With `COc1cc(Nc2ncnc(Nc3ccc4cn[nH]c4c3)n2)cc(OC)c1OC` [Compound 70], the IC50 on Tek was over 11.4 µM; at Lyn, 1020 to 6100 nM; at EPHB4, 1.02 to 6.1 µM; against Ret-1, 1.02 to 6.1 µM; on Zap-70 it was over 11.4 µM; at ErbB4, 1.02 to 6.1 µM.
For `COc1cc(Nc2ncnc(Nc3ccc(Cl)cc3)n2)cc(OC)c1OC` [Compound 72], the IC50 at Tek was over 11.6 µM; on EPHB4, 1.03 to 6.19 µM; at Ret-1, under 1.03 µM; at Zap-70, over 11.6 µM; at ErbB2, 1.03 to 6.19 µM; on ErbB4, 1.03 to 6.19 µM.
As for `COc1cc(Nc2ncnc(Nc3cccc(Br)c3)n2)cc(OC)c1OC` [Compound 75], the IC50 on Tek was over 10.4 µM; at Lyn it was under 925 nM; on EPHB4 it was under 0.925 µM; against Ret-1 it was over 10.4 µM; on Zap-70, 8.1 to 10.4 µM; on ErbB4, over 10.4 µM.
As to `COc1cc(Nc2ncnc(Nc3ccc(O)cc3Cl)n2)cc(OC)c1OC` [Compound 77], the IC50 is over 11.1 µM at Tek; under 991 nM against Lyn; 0.991 to 5.94 µM at EPHB4; 0.991 to 5.94 µM on Ret-1; over 11.1 µM on Zap-70.
On to `COc1cc(Nc2ncnc(Nc3cccc(O)c3)n2)cc(OC)c1OC` [Compound 78], for which the IC50 at Tek was over 12.2 µM; against Lyn, under 1080 nM; on EPHB4, under 1.08 µM; on Ret-1 it was under 1.08 µM; on Zap-70, over 12.2 µM; on ErbB4, 1.08 to 6.5 µM.
In the case of `COc1cc(Nc2ncnc(Nc3ccc(Br)cc3)n2)cc(OC)c1OC` [Compound 82], the IC50 on Tek was over 10.4 µM; at EPHB4, 0.925 to 5.55 µM; against Ret-1, 0.925 to 5.55 µM; on Zap-70 it was over 10.4 µM.
For `COc1ccc(Nc2ncnc(Nc3cc(OC)c(OC)c(OC)c3)n2)cc1` [Compound 89], the IC50 at Tek is over 11.7 µM; against Lyn, 1040 to 6260 nM; on EPHB4, over 11.7 µM; at Ret-1, 1.04 to 6.26 µM; at Zap-70 it was over 11.7 µM.
With `COc1ccccc1Nc1ncnc(Nc2cc(OC)c(OC)c(OC)c2)n1` [Compound 90], the IC50 at Tek is over 11.7 µM; at Lyn, under 1040 nM; on EPHB4 it was 1.04 to 6.26 µM; against Ret-1, 1.04 to 6.26 µM; on Zap-70, over 11.7 µM.
For the compound `COc1cc(Nc2ncnc(Nc3ccccc3)n2)cc(OC)c1OC` [Compound 91], the IC50 is over 12.7 µM on Tek; 1130 to 6790 nM on Lyn; 6.79 to 9.9 µM at EPHB4; 1.13 to 6.79 µM against Ret-1; over 12.7 µM on Zap-70; 1.13 to 6.79 µM at ErbB2.
As for `COc1cc(Nc2ncnc(Nc3ccc(N)cc3)n2)cc(OC)c1OC` [Compound 92], the IC50 on Tek is 6.51 to 9.5 µM; against Lyn, 1090 to 6510 nM; on EPHB4, 6.51 to 9.5 µM; against Ret-1, over 12.2 µM; on Zap-70, 9.5 to 12.2 µM.
`COc1cc(Nc2ncnc(Nc3cnc4ccccc4c3)n2)cc(OC)c1OC` [Compound 99]: the IC50 at Tek is over 11.1 µM; against Lyn, 8650 to 11100 nM; on EPHB4 it was under 0.989 µM; against Ret-1, 0.989 to 5.93 µM; on Zap-70, over 11.1 µM.
Take `COc1cc(Nc2ncnc(-n3c(NCc4ccccc4)nc4ccccc43)n2)cc(OC)c1OC` [Compound 371]: the IC50 at Tek was over 9.31 µM; against Lyn, under 827 nM; at EPHB4, under 0.827 µM; on Zap-70, over 9.31 µM; on ErbB2 it was over 9.31 µM; at ErbB4, over 9.31 µM.
Regarding `COc1cc(Nc2ncnc(-n3c(Nc4ccc5[nH]ccc5c4)nc4ccccc43)n2)cc(OC)c1OC` [Compound 376], the IC50 is 0.787 to 4.72 µM at Tek; under 787 nM on Lyn; 6.88 to 8.85 µM at EPHB4; over 8.85 µM on Zap-70; 4.72 to 6.88 µM at ErbB2; 6.88 to 8.85 µM at ErbB4.
On to `COc1cc(Nc2ncnc(NC(=O)Nc3ccccc3)n2)cc(OC)c1OC` [Compound 852], for which the IC50 on Lyn is over 11400 nM; at EPHB4, over 11.4 µM; against Ret-1, 6.05 to 8.83 µM; on Zap-70, 8.83 to 11.4 µM; at ErbB2, 6.05 to 8.83 µM; on ErbB4, over 11.4 µM.
